Measurements as given in the supplement of paper PMC13380429.

Assays:
Settings in all cases: 72 h
[1] = test system: Caco-2; test: drug sensitivity score (DSS) for viability; higher = more toxic; extreme values may be limits of the assay
[2] = test system: HepG2; test: as above
[3] = test system: Calu-3; test: as above
[4] = test system: Vero E6; test: as above
[5] = test system: U2OS; test: as above
[6] = test system: Caco-2; test: relative viability EC50 (midpoint between 100% and the lowest measured viability); higher = less toxic
[7] = test system: HepG2; test: as above
[8] = test system: Calu-3; test: as above
[9] = test system: Vero E6; test: as above
[10] = test system: U2OS; test: as above
[11] = test system: Caco-2; test: cell viability relative to DMSO; higher = less toxic
[12] = test system: HepG2; test: as above
[13] = test system: Calu-3; test: as above
[14] = test system: Vero E6; test: as above
[15] = test system: U2OS; test: as above

Row | Structure (SMILES) | drug sensitivity score [1] | drug sensitivity score [2] | drug sensitivity score [3] | drug sensitivity score [4] | drug sensitivity score [5] | relative viability EC50 [6] | relative viability EC50 [7] | relative viability EC50 [8] | relative viability EC50 [9] | relative viability EC50 [10] | cell viability ([11]; 1 nM) | cell viability ([11]; 10 nM) | cell viability ([11]; 100 nM) | cell viability ([11]; 1000 nM) | cell viability ([11]; 10000 nM) | cell viability ([12]; 1 nM) | cell viability ([12]; 10 nM) | cell viability ([12]; 100 nM) | cell viability ([12]; 1000 nM) | cell viability ([12]; 10000 nM) | cell viability ([13]; 1 nM) | cell viability ([13]; 10 nM) | cell viability ([13]; 100 nM) | cell viability ([13]; 1000 nM) | cell viability ([13]; 10000 nM) | cell viability ([14]; 1 nM) | cell viability ([14]; 10 nM) | cell viability ([14]; 100 nM) | cell viability ([14]; 1000 nM) | cell viability ([14]; 10000 nM) | cell viability ([15]; 1 nM) | cell viability ([15]; 10 nM) | cell viability ([15]; 100 nM) | cell viability ([15]; 1000 nM) | cell viability ([15]; 10000 nM)
1 | CS(=O)(=O)n1cc2c(n1)CN([C@H]1CO[C@H](c3cc(F)ccc3F)[C@@H](N)C1)C2 [omarigliptin] | 0 | 0 | 0 | 0 | 0 | > 10 µM | > 10 µM | > 10 µM | > 10 µM | > 10 µM | 92.5% | 101% | 95.4% | 97.5% | 106% | 103% | 106% | 101% | 99.7% | 103% | 98.4% | 97.7% | 88.4% | 108% | 100% | 97.8% | 103% | 95.5% | 98.7% | 103% | 97.8% | 96.8% | 94.2% | 101% | 104%
2 | CC[N+](C)(CC)CCOC(=O)C(O)(c1ccccc1)C1CCCCC1 (stereo not given) [oxyphenonium] | 0 | 0 | 0.1 | 0 | 0 | > 10 µM | > 10 µM | > 10 µM | > 10 µM | > 10 µM | 88.6% | 98.4% | 88.7% | 101% | 95.6% | 90.4% | 94.1% | 98.1% | 86.2% | 99.4% | 92.9% | 106% | 97.5% | 99.2% | 87.2% | 95.9% | 97.2% | 100% | 99.4% | 96.8% | 97.8% | 100% | 98.8% | 98.3% | 96.6%
3 | O=P(O)(NCCCl)NCCCl [palifosfamide] | 0 | 0 | 0 | 0 | 0 | > 10 µM | > 10 µM | > 10 µM | > 10 µM | > 10 µM | 94.4% | 93.7% | 103% | 98.4% | 93.7% | 100% | 102% | 95.3% | 106% | 108% | 91.6% | 101% | 99.4% | 98.8% | 105% | 93.5% | 95.9% | 91.7% | 98.1% | 107% | 100% | 94% | 102% | 98.9% | 97.2%
4 | NCCC(O)(P(=O)(O)O)P(=O)(O)O [pamidronate] | 0 | 0 | 0 | 0 | 0 | > 10 µM | > 10 µM | > 10 µM | > 10 µM | > 10 µM | 87.2% | 104% | 106% | 96% | 97.2% | 106% | 105% | 97.5% | 108% | 106% | 92.7% | 111% | 100% | 98.9% | 93.8% | 100% | 94.8% | 96.2% | 97.9% | 101% | 98.7% | 101% | 95.6% | 101% | 99%
5 | Oc1cc(O)cc(/C=C/c2ccc(O)c(O)c2)c1 [piceatannol] | 0.5 | 0 | 0 | 0 | 0 | > 10 µM | > 10 µM | > 10 µM | > 10 µM | > 10 µM | 90.2% | 93.7% | 101% | 96.1% | 86% | 98.8% | 87.3% | 105% | 92.7% | 97.7% | 95.3% | 93.5% | 90.4% | 99.9% | 88.9% | 103% | 94.1% | 94.8% | 92.1% | 101% | 97.5% | 98.2% | 94.2% | 100% | 96.1%
6 | Cc1cccc(C)c1NC(=O)CN1CCCCCC1 [pincainide] | 0.2 | 0 | 0 | 0 | 0 | > 10 µM | > 10 µM | > 10 µM | > 10 µM | > 10 µM | 94.3% | 102% | 94.1% | 110% | 82% | 99.2% | 106% | 118% | 104% | 106% | 95.1% | 96% | 99% | 98.7% | 97.5% | 98.7% | 87.8% | 95.7% | 89.2% | 107% | 97.7% | 103% | 98% | 101% | 101%
